In US20240158446A1, “CYCLIC COMPOUND HAVING SELECTIVE INHIBITORY ACTION ON KRAS OVER HRAS AND NRAS” (CHUGAI SEIYAKU KABUSHIKI KAISHA, priority 2021, published 2024):

How the values were obtained:
[1] = target: GDP-bound HRAS wild-type protein (Homo sapiens, UniProt P01112); experiment: Binding to HRAS by surface plasmon resonance (SPR), Single Cycle Kinetics; conditions: for HRAS/KRAS (ratio of KD value for HRAS to KD value for KRAS) / HRAS/KRAS (ratio of KD value with respect to HRAS to KD value with respect to KRAS): SPR, GDP-bound HRAS wild-type protein vs GDP-bound KRAS wild-type protein; for HRAS/KRAS (ratio of KD value with respect to GDP-bound HRAS wild-type protein to KD value with respect to KRAS): SPR KD ratio HRAS/KRAS, class symbols
[2] = target: GDP-bound NRAS wild-type protein (Homo sapiens, UniProt P01111); experiment: Binding to NRAS by surface plasmon resonance (SPR), Single Cycle Kinetics; conditions: for NRAS/KRAS (ratio of KD value for NRAS to KD value for KRAS) / NRAS/KRAS (ratio of KD value with respect to NRAS to KD value with respect to KRAS): SPR, GDP-bound NRAS wild-type protein vs GDP-bound KRAS wild-type protein; for NRAS/KRAS (ratio of KD value with respect to GDP-bound NRAS wild-type protein to KD value with respect to KRAS): SPR KD ratio NRAS/KRAS, class symbols
Chain of GDP-bound NRAS wild-type protein (P01111 whole entry): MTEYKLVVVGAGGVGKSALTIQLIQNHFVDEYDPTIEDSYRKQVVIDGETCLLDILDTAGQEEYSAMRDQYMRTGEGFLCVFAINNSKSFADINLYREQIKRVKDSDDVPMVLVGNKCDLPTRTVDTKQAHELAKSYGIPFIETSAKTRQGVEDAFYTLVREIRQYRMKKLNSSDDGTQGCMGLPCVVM

Chain of GDP-bound HRAS wild-type protein (P01112 whole entry): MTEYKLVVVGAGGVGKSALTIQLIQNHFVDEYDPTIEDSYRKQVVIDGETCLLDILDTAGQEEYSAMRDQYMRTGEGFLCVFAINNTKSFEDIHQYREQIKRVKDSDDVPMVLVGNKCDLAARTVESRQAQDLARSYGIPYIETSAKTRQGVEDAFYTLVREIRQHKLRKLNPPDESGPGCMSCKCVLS

## CCO[C@@H]1C[C@H]2C(=O)NC3(CCC3)C(=O)N(C)[C@@H](C3CCCC3)C(=O)N(C)[C@H](C(=O)N3CCOCC3)CC(=O)N(C)[C@@H](COC3CC3)C(=O)N[C@@H]([C@@H](C)CC)C(=O)N(C)CC(=O)N(C)[C@H]3CCCCCN(C3=O)[C@@H](Cc3ccc(C(F)(F)F)cc3)C(=O)N(C)CC(=O)N[C@@H](CCc3cc(F)c(C(F)(F)F)c(F)c3)C(=O)N2C1 [PP0852]
[1]
  HRAS/KRAS (ratio of KD value for HRAS to KD value for KRAS): B (a compound having 3 or more and less than 10 is denoted as B)
[2]
  NRAS/KRAS (ratio of KD value for NRAS to KD value for KRAS): B (a compound having 3 or more and less than 10 is denoted as B)

## CCCN1C(=O)[C@@H]2CCN2C(=O)[C@H](C)N(C)C(=O)[C@H]([C@@H](C)CC)NC(=O)[C@H](CC(C)C)N(C)C(=O)C[C@@H](C(=O)N2CCOCC2)N(C)C(=O)[C@H](C2CCCC2)N(C)C(=O)C2(CCCC2)NC(=O)[C@@H]2C[C@H](O)CN2C(=O)[C@H](CCc2ccc(C(F)(F)F)c(Cl)c2)NC(=O)CN(C)C(=O)[C@@H]1Cc1ccc(C(F)(F)F)cc1 (stereo in doubt) [PP0238]
[1]
  HRAS/KRAS (ratio of KD value for HRAS to KD value for KRAS): C (A compound having a KD ratio of 0.1 or more and less than 3 is denoted as C)
[2]
  NRAS/KRAS (ratio of KD value for NRAS to KD value for KRAS): C (A compound having a KD ratio of 0.1 or more and less than 3 is denoted as C)

## CCOC[C@H]1C(=O)N[C@@H]([C@@H](C)CC)C(=O)N(C)CC(=O)N(C)[C@H]2C/C=C\CCN(C2=O)[C@@H](Cc2ccc3c(c2)CCC3(F)F)C(=O)N(C)CC(=O)N[C@@H](CCc2ccc(C(F)(F)F)c(OC)c2)C(=O)N2C[C@@H](C)C[C@H]2C(=O)NC2(CC(C)(C)C2)C(=O)N(C)[C@@H](C2CCCC2)C(=O)N(C)[C@H](C(=O)N(C)CC)CC(=O)N1C [PP2704]
[1]
  HRAS/KRAS (ratio of KD value with respect to GDP-bound HRAS wild-type protein to KD value with respect to KRAS): B (a compound having 3 or more and less than 10 is denoted as B)
[2]
  NRAS/KRAS (ratio of KD value with respect to GDP-bound NRAS wild-type protein to KD value with respect to KRAS): B (a compound having 3 or more and less than 10 is denoted as B)

## CCC[C@H]1C(=O)N[C@@H]([C@@H](C)CC)C(=O)N(C)CC(=O)N(C)[C@H]2C/C=C\CCN(C2=O)[C@@H](Cc2ccc(C(F)(F)F)cc2)C(=O)N(C)CC(=O)N[C@@H](CCc2ccc(C3CC3)c(C)c2)C(=O)N2C[C@H](OCC)C[C@H]2C(=O)NC2(CC(C)(C)C2)C(=O)N(C)[C@@H](C2CCCC2)C(=O)N(C)[C@H](C(=O)N(C)C)CC(=O)N1C [PP2855]
[1]
  HRAS/KRAS (ratio of KD value with respect to GDP-bound HRAS wild-type protein to KD value with respect to KRAS): A (a compound having 10 or more and less than 20 is denoted as A)
[2]
  NRAS/KRAS (ratio of KD value with respect to GDP-bound NRAS wild-type protein to KD value with respect to KRAS): A (a compound having 10 or more and less than 20 is denoted as A)

## CCC[C@H]1C(=O)N[C@@H]([C@@H](C)CC)C(=O)N(C2CC2)CC(=O)N(C)[C@H]2C/C=C\CCN(C2=O)[C@@H](Cc2ccc(C)cc2)C(=O)N(C)CC(=O)N[C@@H](CCc2ccc(Cl)c(Cl)c2)C(=O)N2C[C@H](OCC)C[C@H]2C(=O)NC2(CC(C)(C)C2)C(=O)N(C)[C@@H](CC2CC2)C(=O)N(C)[C@H](C(=O)N(C)C)CC(=O)N1C [PP2805]
[1]
  HRAS/KRAS (ratio of KD value with respect to GDP-bound HRAS wild-type protein to KD value with respect to KRAS): A (a compound having 10 or more and less than 20 is denoted as A)
[2]
  NRAS/KRAS (ratio of KD value with respect to GDP-bound NRAS wild-type protein to KD value with respect to KRAS): A (a compound having 10 or more and less than 20 is denoted as A)

## CCO[C@@H]1C[C@H]2C(=O)NC3(CCC3)C(=O)N(C)[C@@H](C3CCCC3)C(=O)N(C)[C@H](C(=O)N(C)C)CC(=O)N(C)[C@@H](CC3CCCC3)C(=O)N[C@@H]([C@@H](C)CC)C(=O)N(C)CC(=O)N(C)[C@H]3C/C=C\CCN(C3=O)[C@@H](Cc3ccc(C)cc3)C(=O)N(C)CC(=O)N[C@@H](CCc3ccc(C4CC4)c(Cl)c3)C(=O)N2C1 [PP2684]
[1]
  HRAS/KRAS (ratio of KD value with respect to GDP-bound HRAS wild-type protein to KD value with respect to KRAS): A (a compound having 10 or more and less than 20 is denoted as A)
[2]
  NRAS/KRAS (ratio of KD value with respect to GDP-bound NRAS wild-type protein to KD value with respect to KRAS): A (a compound having 10 or more and less than 20 is denoted as A)

## CCO[C@@H]1C[C@H]2C(=O)NC3(CC(C)(C)C3)C(=O)N(C)[C@@H](C3CCCC3)C(=O)N(C)[C@@H](C(C)C)CC(=O)N(C)[C@@H](CC3CC3)C(=O)N[C@@H]([C@@H](C)CC)C(=O)N(C)CC(=O)N(C)[C@H]3C/C=C\CCN(C3=O)[C@@H](Cc3ccc(C(F)(F)F)cc3)C(=O)N(C)CC(=O)N[C@@H](CCc3cc(F)c(C(F)(F)F)c(F)c3)C(=O)N2C1 [PP1594]
[1]; KD ratio class
  HRAS/KRAS (ratio of KD value for HRAS to KD value for KRAS): A (a compound having 10 or more and less than 20 is denoted as A)
[2]; KD ratio class
  NRAS/KRAS (ratio of KD value for NRAS to KD value for KRAS): A (a compound having 10 or more and less than 20 is denoted as A)

## CCO[C@@H]1C[C@H]2C(=O)NC3(CCC3)C(=O)N(C)[C@@H](C3CCCC3)C(=O)N(C)[C@H](C(=O)N(C)C)CC(=O)N(C)[C@@H](CC3CCCC3)C(=O)N[C@@H]([C@@H](C)CC)C(=O)N(C)CC(=O)N(C)[C@H]3C/C=C\CCN(C3=O)[C@@H](Cc3ccc(F)cc3C)C(=O)N(C)CC(=O)N[C@@H](CCc3cc(F)c(C(F)(F)F)c(F)c3)C(=O)N2C1 [PP1530]
[1]; KD ratio class
  HRAS/KRAS (ratio of KD value for HRAS to KD value for KRAS): B (a compound having 3 or more and less than 10 is denoted as B)
[2]; KD ratio class
  NRAS/KRAS (ratio of KD value for NRAS to KD value for KRAS): A (a compound having 10 or more and less than 20 is denoted as A)

## CCO[C@@H]1C[C@H]2C(=O)NC3(CC(C)(C)C3)C(=O)N(C)[C@@H](C3CCCC3)C(=O)N(C)[C@H](C(=O)N(C)CC)CC(=O)N(C)[C@H]3C/C=C/c4ccc(cc4)C[C@@H](C(=O)N(C)CC(=O)N[C@@H](CCc4ccc(Cl)c(Cl)c4)C(=O)N2C1)N1CC/C=C\C[C@@H](C1=O)N(C)C(=O)CN(C)C(=O)[C@H]([C@@H](C)CC)NC3=O [PP3056]
[1]
  HRAS/KRAS (ratio of KD value for HRAS to KD value for KRAS): A (a compound having 10 or more and less than 20 is denoted as A)
[2]
  NRAS/KRAS (ratio of KD value for NRAS to KD value for KRAS): A (a compound having 10 or more and less than 20 is denoted as A)

## CCO[C@@H]1C[C@H]2C(=O)NC3(CCC3)C(=O)N(C)[C@@H](C3CCCC3)C(=O)N(C)[C@H](C(=O)N(C)C)CC(=O)N(C)[C@@H](CCOC)C(=O)N[C@@H]([C@@H](C)CC)C(=O)N(C)CC(=O)N(C)[C@H]3CCCCCN(C3=O)[C@@H](Cc3ccc(C(F)(F)F)cc3)C(=O)N(C)CC(=O)N[C@@H](CCc3cc(F)c(C(F)(F)F)c(F)c3)C(=O)N2C1 [PP0675]
[1]
  HRAS/KRAS (ratio of KD value with respect to HRAS to KD value with respect to KRAS): B (a compound having 3 or more and less than 10 is denoted as B)
[2]
  NRAS/KRAS (ratio of KD value with respect to NRAS to KD value with respect to KRAS): B (a compound having 3 or more and less than 10 is denoted as B)

## CCCC[C@H]1C(=O)N[C@@H]([C@@H](C)CC)C(=O)N(C)CC(=O)N(C)[C@H]2C/C=C\CCN(C2=O)[C@@H](Cc2ccc(C(F)(F)F)cc2)C(=O)N(C)CC(=O)N[C@@H](CCc2ccc(C(F)(F)F)c(Cl)c2)C(=O)N2C[C@H](OCC)C[C@H]2C(=O)NC2(CCC2)C(=O)N(C)[C@@H](C2CCCC2)C(=O)N(C)[C@H](C(=O)N(C)CC)CC(=O)N1C [PP2841]
[1]
  HRAS/KRAS (ratio of KD value with respect to GDP-bound HRAS wild-type protein to KD value with respect to KRAS): A (a compound having 10 or more and less than 20 is denoted as A)
[2]
  NRAS/KRAS (ratio of KD value with respect to GDP-bound NRAS wild-type protein to KD value with respect to KRAS): A (a compound having 10 or more and less than 20 is denoted as A)

## CCC[C@H]1C(=O)N[C@@H]([C@@H](C)CC)C(=O)N(C)CC(=O)N(C)[C@H]2C/C=C\CCN(C2=O)[C@@H](Cc2ccc(C)cc2)C(=O)N(C)CC(=O)N[C@@H](CCc2ccc3c(C)cn(C)c3c2)C(=O)N2C[C@H](OCC)C[C@H]2C(=O)NC2(CC(C)(C)C2)C(=O)N(C)[C@@H](C(CC)CC)C(=O)N(C)[C@H](C(=O)N(C)C)CC(=O)N1C [PP2910]
[1]
  HRAS/KRAS (ratio of KD value with respect to GDP-bound HRAS wild-type protein to KD value with respect to KRAS): A (a compound having 10 or more and less than 20 is denoted as A)
[2]
  NRAS/KRAS (ratio of KD value with respect to GDP-bound NRAS wild-type protein to KD value with respect to KRAS): AA (a compound having 20 or more is denoted as AA)

## CC[C@H](C)[C@@H]1NC(=O)[C@H](CC)N(C)C(=O)C[C@@H](C(=O)N(C)C)N(C)C(=O)[C@H](C2CCCC2)N(C)C(=O)C2(CCC2)NC(=O)[C@@H]2CCN2C(=O)[C@H](CCc2cc(F)c(C(F)(F)F)c(F)c2)NC(=O)CN(C)C(=O)[C@H](Cc2ccc(C(F)(F)F)cc2)N2CCCCC[C@@H](C2=O)N(C)C(=O)CN(C)C1=O [PP0654]
[1]
  HRAS/KRAS (ratio of KD value with respect to HRAS to KD value with respect to KRAS): B (a compound having 3 or more and less than 10 is denoted as B)
[2]
  NRAS/KRAS (ratio of KD value with respect to NRAS to KD value with respect to KRAS): B (a compound having 3 or more and less than 10 is denoted as B)

## CCO[C@@H]1C[C@H]2C(=O)NC3(CC(C)(C)C3)C(=O)N(C)[C@@H](C3CCCC3)C(=O)N(C)[C@H](C(=O)N(C)C)CC(=O)N(C)[C@H]3CCCCC/C=C/c4ccc(cc4)C[C@@H](C(=O)N(C)CC(=O)N[C@@H](CCc4ccc(Cl)c(Cl)c4)C(=O)N2C1)N1CC/C=C\C[C@@H](C1=O)N(C)C(=O)CN(C)C(=O)[C@H]([C@@H](C)CC)NC3=O [PP3057]
[1]
  HRAS/KRAS (ratio of KD value for HRAS to KD value for KRAS): B (a compound having 3 or more and less than 10 is denoted as B)
[2]
  NRAS/KRAS (ratio of KD value for NRAS to KD value for KRAS): A (a compound having 10 or more and less than 20 is denoted as A)

## CCC[C@H]1C(=O)N[C@@H]([C@@H](C)CC)C(=O)N(C)CC(=O)N(C)[C@H]2C/C=C\CCN(C2=O)[C@@H](Cc2ccc(C)cc2)C(=O)N(C)CC(=O)N[C@@H](CCc2cc(Cl)c3c(ccn3C)c2)C(=O)N2C[C@H](OCC)C[C@H]2C(=O)NC2(CC(C)(C)C2)C(=O)N(C)[C@@H](C2CCCC2)C(=O)N(C)[C@H](C(=O)N(C)C)CC(=O)N1C [PP2951]
[1]
  HRAS/KRAS (ratio of KD value with respect to GDP-bound HRAS wild-type protein to KD value with respect to KRAS): A (a compound having 10 or more and less than 20 is denoted as A)
[2]
  NRAS/KRAS (ratio of KD value with respect to GDP-bound NRAS wild-type protein to KD value with respect to KRAS): A (a compound having 10 or more and less than 20 is denoted as A)
